IC50 data for 51 molecules are collected here from patent US9212180B2 (priority 2013, dated 2015).

The structures appear in SMILES notation.

The IC50 is the point on the concentration scale where inhibition reaches its midpoint. A low value points to higher potency.

The test concerns the target T1, menin-MLL interaction (Homo sapiens, UniProt O00255).
T1 sequence (O00255 1-610): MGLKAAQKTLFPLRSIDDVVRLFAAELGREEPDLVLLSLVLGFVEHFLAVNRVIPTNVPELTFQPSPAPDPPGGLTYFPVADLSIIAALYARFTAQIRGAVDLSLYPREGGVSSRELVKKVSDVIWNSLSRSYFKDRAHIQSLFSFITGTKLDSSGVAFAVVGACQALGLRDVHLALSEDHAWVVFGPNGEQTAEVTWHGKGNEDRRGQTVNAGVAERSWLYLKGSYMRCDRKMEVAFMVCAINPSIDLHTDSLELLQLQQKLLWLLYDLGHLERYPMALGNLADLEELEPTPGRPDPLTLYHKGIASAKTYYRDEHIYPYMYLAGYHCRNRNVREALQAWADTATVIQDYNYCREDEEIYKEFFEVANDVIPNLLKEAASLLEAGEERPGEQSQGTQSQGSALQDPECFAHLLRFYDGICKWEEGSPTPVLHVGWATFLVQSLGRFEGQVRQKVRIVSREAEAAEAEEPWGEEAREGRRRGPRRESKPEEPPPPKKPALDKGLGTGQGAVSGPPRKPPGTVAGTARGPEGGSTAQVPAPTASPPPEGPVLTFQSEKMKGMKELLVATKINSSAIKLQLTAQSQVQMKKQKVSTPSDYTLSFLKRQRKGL
In words: biochemical.
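Note: fluorescence polarization competition assay, inhibitors lower the fluorescence anisotropy signal, IC50 taken from this drop.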

Description: Fluorescence Polarization Assay.
Compounds that inhibit the interaction decrease the fluorescence anisotropy which is being used as a read-out for compound screening and for IC50 determination. For validation of the FP assay, a control competition experiment with unlabeled MLL peptide (no fluorescein attached) was performed.

`OC(c1ccccc1)(c1ccccc1)C1CCN(CCCOc2ccc(C(F)(F)F)cc2)CC1` [Compound B3] came in with an IC50 of 52 µM.
In turn, `OC(c1ccccc1)(c1ccccc1)C1CCN(CCCOc2ccc(OC(F)(F)F)cc2)CC1` [Compound B4] registered an IC50 of 98 µM. This IC50 is about 1.9-fold higher than that of the molecule before.
On to `OC(c1ccccc1)(c1ccccc1)C1CCN(CCCOc2ccc(Cl)cc2)CC1` [Compound B5], for which the IC50 is 96 µM.
For the molecule `N#Cc1ccc(OCCCN2CCC(C(O)(c3ccccc3)c3ccccc3)CC2)cc1F` [Compound B6], the IC50 came to 26.5 µM.
Molecule `OC(c1ccccc1)(c1ccccc1)C1CCN(CCCOc2ccc(-n3ccnn3)cc2)CC1` [Compound B10, (1-(3-(4-(1H-1,2,3-triazol-1-yl)phenoxy)propyl)piperidin-4-yl)diphenylmethanol] came in with an IC50 of 29 µM. This IC50 and that of the molecule before are within 1.5-fold of each other.
For the molecule `N#Cc1ccc(OCCCN2CCC(C(O)(c3ccccc3)c3ccc(F)cc3)CC2)cc1` (stereo not drawn) [Compound B13], the IC50 amounted to 77.5 µM.
Molecule `[N-]=[N+]=Nc1ccc(OCCCN2CCC(C(O)(c3ccccc3)c3ccccc3)CC2)cc1` [Compound B14] yielded an IC50 of 58 µM.
As to `COC(=O)c1ccc(OCCCN2CCC(C(O)(c3ccccc3)c3ccccc3)CC2)cc1` [Compound B16], half-maximal inhibition (IC50) was put at 86 µM.
With `N#Cc1ccc(OCCCN2CCC(C(O)(c3ccccc3)C(F)(F)F)CC2)cc1` (stereo not drawn) [Compound B23], half-maximal inhibition (IC50) required 31 µM.
Turning to `NS(=O)(=O)c1ccc(OCCCN2CCC(C(O)(c3ccccc3)c3ccccc3)CC2)cc1` [Compound B24], inhibition was half-maximal at 14.3 µM (IC50).
For the molecule `CS(=O)(=O)NCc1ccc(OCCCN2CCC(C(O)(c3ccccc3)c3ccccc3)CC2)cc1` [Compound B25], the IC50 amounted to 40 µM.
`O=C(c1ccc(OCCCN2CCC(C(O)(c3ccccc3)C3CCCC3)CC2)cc1)C1CCCC1` (stereo not drawn) [Compound B26]: the IC50 came to 3.95 µM.
Regarding `NCc1ccc(OCCCN2CCC([C@](O)(c3ccccc3)C3CCCC3)CC2)cc1` [Compound B27], it took 13.9 µM to reach half-maximal inhibition (IC50). This IC50 lies about 3.5-fold higher than the previous one.
Molecule `NCc1ccc(OCCCN2CCC([C@@](O)(c3ccccc3)C3CCCC3)CC2)cc1` [Compound B28] showed an IC50 of 13.1 µM.
With `Oc1ccccc1-c1ccc(OCCCN2CCC(C(O)(c3ccccc3)c3ccccc3)CC2)cc1` [Compound B29], half-maximal inhibition (IC50) was put at 8.3 µM.
The same measure for `CN(C)S(=O)(=O)c1ccc(OCCCN2CCC(C(O)(c3ccccc3)c3ccccc3)CC2)cc1` [Compound B30]: 40 µM; for `N#Cc1ccc(OCCCN2CCC(C(O)(C3CCCC3)C3CCCC3)CC2)cc1` [Compound B31]: 1.4 µM; for `N#Cc1ccc(OCCCN2CCC(C(O)(C3=CCCC3)c3ccccc3)CC2)cc1` (stereo not drawn) [Compound B32]: 2.08 µM.
As for `CS(=O)(=O)c1ccc(OCCCN2CCC(C(O)(c3ccccc3)c3ccccc3)CC2)cc1` [Compound B33], the figure is 58.5 µM.
In turn, `NCc1ccc(OCCCN2CCC(C(O)(C3=CCCC3)c3ccccc3)CC2)cc1` (stereo not drawn) [Compound B34] showed an IC50 of 13.9 µM.
The molecule `OC(c1ccccc1)(c1ccccc1)C1CCN(CCCOc2ccc(-c3ccncc3)cc2)CC1` [Compound B35, Diphenyl(1-(3-(4-(pyridin-4-yl)phenoxy)propyl)piperidin-4-yl)methanol] gave an IC50 of 30.6 µM.
With `OC(c1ccccc1)(c1ccccc1)C1CCN(CCCOc2ccc(-c3cccnc3)cc2)CC1` [Compound B36], the IC50 was 22.6 µM.
As for `OC(c1ccccc1)(c1ccccc1)C1CCN(CCCOc2ccncc2)CC1` [Compound B37], the figure is 25 µM.
`CC(=O)NCc1ccc(OCCCN2CCC(C(O)(c3ccccc3)c3ccccc3)CC2)cc1` [Compound B38] returned an IC50 of 20.7 µM.
The molecule `OC(c1ccccc1)(c1ccccc1)C1CCN(CCCOc2ccc(-c3cncnc3)cc2)CC1` [Compound B39] displayed an IC50 of 83 µM.
With `N#CCc1ccc(OCCCN2CCC(C(O)(c3ccccc3)c3ccccc3)CC2)cc1` [Compound B40], the IC50 was determined as 17.4 µM.
The molecule `N#Cc1ccc(OC[C@H](O)CN2CCC(C(O)(c3ccccc3)C3CCCC3)CC2)cc1` (stereo partly drawn) [Compound B41] came in with an IC50 of 1.15 µM. Against the preceding molecule, the IC50 is about 15-fold lower.
On to `N#Cc1ccc(NCCCN2CCC(C(O)(c3ccccc3)c3ccccc3)CC2)cc1` [Compound B42], for which the IC50 is 9.56 µM.
Molecule `N#Cc1ccc(OC[C@@H](O)CN2CCC(C(O)(c3ccccc3)C3CCCC3)CC2)cc1` (stereo partly drawn) [Compound B43] returned an IC50 of 0.948 µM. Compared with the last molecule, the IC50 is about 10-fold lower.
As for `CS(=O)(=O)c1ccc(OC[C@@H](O)CN2CCC(C(O)(c3ccccc3)c3ccccc3)CC2)cc1` [Compound B45], the figure is 21 µM.
Consider `Cc1ccc(OC[C@@H](O)CN2CCC(C(O)(c3ccccc3)c3ccccc3)CC2)cc1` [Compound B46], for which half-maximal inhibition (IC50) required 100 µM.
For `O[C@H](COc1ccc(Cl)cc1)CN1CCC(C(O)(c2ccccc2)c2ccccc2)CC1` [Compound B47], 40 µM corresponded to half-maximal inhibition (IC50).
The molecule `O[C@H](COc1ccc(OC(F)(F)F)cc1)CN1CCC(C(O)(c2ccccc2)c2ccccc2)CC1` [Compound B48] had an IC50 of 31 µM.
Take `CC(COc1ccc(C#N)c(F)c1)CN1CCC(C(O)(c2ccccc2)c2ccccc2)CC1` (stereo not drawn) [Compound B49]: half-maximal inhibition (IC50) required 70.8 µM.
Regarding `N#Cc1ccc(OC[C@@H](O)CN2CCC(C(O)(c3ccccc3)c3ccccc3)CC2)c(F)c1` [Compound B50], the IC50 came to 40 µM.
The molecule `N#Cc1ccc(OC[C@@H](O)CN2CCC(C(O)(c3ccccc3)c3ccccc3)CC2)cc1F` [Compound B51] gave an IC50 of 15 µM. This IC50 is about 2.7-fold lower than that of the molecule before.
Consider `CC(CCN1CCC(C(O)(c2ccccc2)c2ccccc2)CC1)Oc1ccc([N+](=O)[O-])cc1Cl` (stereo not drawn) [Compound B52], for which the IC50 came out at 55 µM.
Regarding `CCOC(c1ccccc1)(c1ccccc1)C1CCN(CCCOc2ccc(C#N)cc2)CC1` [Compound B54], the midpoint of inhibition, the IC50, lay at 5.3 µM.
As to `COC(c1ccccc1)(c1ccccc1)C1CCN(CCCOc2ccc(C#N)cc2)CC1` [Compound B55], the IC50 came out at 5.3 µM.
Consider `CN(C)CCOC(c1ccccc1)(c1ccccc1)C1CCN(CCCOc2ccc(C#N)cc2)CC1` [Compound B56], for which the IC50 worked out at 4.2 µM.
As to `COc1ccc(C(O)(C2CCCC2)C2CCN(CCCOc3ccc(C#N)cc3)CC2)cn1` (stereo not drawn) [Compound B57], 75 µM corresponded to half-maximal inhibition (IC50).
The same measure for `N#Cc1ccc(OCCCN2CCC(C(O)(Cc3ccccc3)C3=CCCC3)CC2)cc1` (stereo not drawn) [Compound B59]: 11.3 µM; for `N#Cc1ccc(OCCCN2CCC(C(O)(c3ccccc3)C3CCCC3)CC2)cn1` (stereo not drawn) [Compound B61]: 8.94 µM.
For the molecule `COC(c1ccccc1)(C1CCCC1)C1CCN(CCCOc2ccc(C#N)cc2)CC1` (stereo not drawn) [Compound B62], the IC50 stood at 0.743 µM. Compared with the last molecule, the IC50 is about 12-fold lower.
`N#Cc1ccc(OCCCN2CCC(C(O)(C3CCCC3)C3CCCCN3)CC2)cc1` (stereo not drawn) [Compound B63] returned an IC50 of 28 µM.
On to `N#Cc1ccc(OCCCN2CCC(C(O)(c3ccccn3)C3CCCC3)CC2)cn1` (stereo not drawn) [Compound B64], for which the IC50 came out at 4.05 µM.
As to `COc1cccc(C(O)(C2CCCC2)C2CCN(CCCOc3ccc(C#N)cc3)CC2)c1` (stereo not drawn) [Compound B68], the IC50 was 1.1 µM.
Molecule `N#Cc1ccc(OCCCN2CCC(C(O)(c3cc(F)cc(F)c3)c3ccccn3)CC2)cc1` (stereo not drawn) [Compound B81] returned an IC50 of 0.9 µM.
In turn, `NS(=O)(=O)c1ccc(OCCCN2CCC(C(O)(c3cccc(F)c3)c3nccs3)CC2)cc1` (stereo not drawn) [Compound B82] gave an IC50 of 0.354 µM.
With `N#Cc1ccc(OCCCN2CCC(C(O)(c3cccc(F)c3)c3nccs3)CC2)cc1` (stereo not drawn) [Compound B83], the IC50 came to 0.407 µM.
Molecule `N#Cc1ccc(OCC(O)CN2CCC(C(O)(c3cccc(F)c3)c3ccccn3)CC2)cc1` (stereo not drawn) [Compound B86, 4-(3-(4-((3-Fluorophenyl)(hydroxy)(pyridin-2-yl)methyl)piperidin-1-yl)-2-hydroxypropoxy)benzonitrile] showed an IC50 of 0.222 µM.
